Test results as given in the NIST ThermoML archive (doi:10.1016/j.jct.2007.03.012).

Assay: xn = mol fraction of the nth substance listed
Settings: Liquid, Bellows volumetry

CC(C)C [2-methylpropane] + CCC
mass density [kg/m3]
Settings	280 K	300 K	320 K	340 K	360 K
1000 kPa, x2 = 0.2765	562.64	–	508.11	–	–
1000 kPa, x2 = 0.5052	551.34	524.22	–	–	–
1000 kPa, x2 = 0.7468	537.6	–	–	–	–
2000 kPa, x2 = 0.2765	564.6	–	511.38	–	–
2000 kPa, x2 = 0.5052	553.2	526.6	497.06	461.7	–
2000 kPa, x2 = 0.7468	539.46	–	479.56	–	–
3000 kPa, x2 = 0.2765	566.3	–	514.42	–	445.63
3000 kPa, x2 = 0.5052	555.01	529.08	500.46	467.03	423.27
3000 kPa, x2 = 0.7468	541.38	–	483.56	–	–
5000 kPa, x2 = 0.2765	569.29	–	520.11	–	458.57
5000 kPa, x2 = 0.5052	558.39	533.59	506.63	476.37	439.84
5000 kPa, x2 = 0.7468	545.05	–	490.55	–	415.25
10000 kPa, x2 = 0.2765	576.64	–	531.88	–	480.82
10000 kPa, x2 = 0.5052	565.97	543.3	519.45	493.82	465.78
10000 kPa, x2 = 0.7468	553.18	–	504.71	–	447.04
20000 kPa, x2 = 0.2765	589.39	–	550.35	–	509.06
20000 kPa, x2 = 0.5052	579.24	559.15	538.88	518.13	496.7
20000 kPa, x2 = 0.7468	566.92	–	525.65	–	–
30000 kPa, x2 = 0.2765	600.09	–	564.57	–	–
30000 kPa, x2 = 0.5052	590.28	572.02	553.95	535.68	–
30000 kPa, x2 = 0.7468	578.25	–	541.33	–	–
40000 kPa, x2 = 0.2765	609.41	–	576.53	–	–
40000 kPa, x2 = 0.5052	599.56	582.88	566.43	549.83	–
40000 kPa, x2 = 0.7468	588.02	–	553.96	–	–
50000 kPa, x2 = 0.2765	617.7	–	586.9	–	–
50000 kPa, x2 = 0.5052	608.07	592.36	576.96	561.5	–
50000 kPa, x2 = 0.7468	596.76	–	564.8	–	–
60000 kPa, x2 = 0.2765	625.03	–	595.84	–	–
60000 kPa, x2 = 0.5052	615.65	600.74	586.25	571.92	–
60000 kPa, x2 = 0.7468	604.59	–	574.56	–	–
70000 kPa, x2 = 0.2765	632.03	–	604.2	–	–
70000 kPa, x2 = 0.5052	622.58	608.66	594.64	581.17	–
70000 kPa, x2 = 0.7468	611.65	–	583.04	–	–
80000 kPa, x2 = 0.2765	638.32	–	611.65	–	–
80000 kPa, x2 = 0.5052	629.12	615.58	602.37	589.45	–
80000 kPa, x2 = 0.7468	618.29	–	590.88	–	–
90000 kPa, x2 = 0.2765	644.2	–	618.46	–	–
90000 kPa, x2 = 0.5052	635.05	622.2	609.27	597.11	–
90000 kPa, x2 = 0.7468	624.34	–	598.03	–	–
100000 kPa, x2 = 0.2765	649.78	–	625.01	–	–
100000 kPa, x2 = 0.5052	640.63	628.29	615.79	603.84	–
100000 kPa, x2 = 0.7468	629.98	–	604.67	–	–
120000 kPa, x2 = 0.2765	659.95	–	636.48	–	–
120000 kPa, x2 = 0.5052	650.88	639.23	627.71	616.54	–
120000 kPa, x2 = 0.7468	640.58	–	616.69	–	–
140000 kPa, x2 = 0.2765	669.13	–	647	–	–
140000 kPa, x2 = 0.5052	660.2	649.29	638.12	627.45	–
140000 kPa, x2 = 0.7468	649.88	–	627.42	–	–
160000 kPa, x2 = 0.2765	677.73	–	656.27	–	–
160000 kPa, x2 = 0.5052	668.68	658.13	647.73	637.64	–
160000 kPa, x2 = 0.7468	658.46	–	636.99	–	–
180000 kPa, x2 = 0.2765	685.38	–	665.05	–	–
180000 kPa, x2 = 0.5052	676.44	666.5	656.41	646.63	–
180000 kPa, x2 = 0.7468	666.22	–	645.7	–	–
200000 kPa, x2 = 0.2765	692.5	–	673	–	–
200000 kPa, x2 = 0.5052	683.68	674.16	664.56	655.11	–
200000 kPa, x2 = 0.7468	673.88	–	653.87	–	–
